Experimental data taken from patent US5420335A, “Parenteral nutrients based on watersoluble glycerol bisacetoacetates” (priority 1993, dated 1995).
Several values for one entry are separate records, joined by “and”; a condition that tells them apart may be missing. Equal entries are not always repeated. Entries after “also recorded” stand apart in the source; their conditions may differ.

Columns and labels:
Assay type in all cases: in vivo, rat (male Sprague-Dawley)
[1] = Oral dietary nitrogen (food) intake of intravenously infused rats
[2] = Daily urinary nitrogen losses of intravenously infused rats
Procedure: Water was available ad libitum at all times.
The vein was then ligated dorsally to the catheter. […] Body weights were measured daily.
(§1) Infusate volume, oral food intake, body weight and urinary volume and total nitrogen were monitored daily for each rat. Infusate volume and food intake were determined by weighing the appropriate container at the start and end of each 24 hr. period. Measurements were recorded between 9 and 10 AM each day. At the end of the 7th day, rats were sacrificed, and blood and liver were harvested. Plasma was separated for measurement of free fatty acids, glucose, and ketone bodies. Liver was weighed and a sample was fixed in buffered formalin for gross histology.
The data were analyzed for significance by the one-way analysis of variance with repeated measures and comparing the effect of dietary treatment on each day. […] The null hypothesis was concluded invalid if p≤0.05. The analysis of variance was computed on a SAS statistical package. […]

[3] = Plasma free fatty acids, glucose and ketone bodies after 7 days of infusion; conditions: for ACAC / BOHB / FFa / Glucose / T.KB / Total FFA: plasma; for T.KB: total ketone bodies
Procedure: as §1
The data were analyzed for significance by the one-way analysis of variance with repeated measures and comparing the effect of dietary treatment on each day. […] The null hypothesis was concluded invalid if p≤0.05. The analysis of variance was computed on a SAS statistical package.

[4] = Table 5, Example 2, end of day 7, average of 7 rats
[5] = Table 5, Example 2, end of day 7, individual rat
[6] = Table 11, Example 4, individual rat

SMILES: OC[C@H]1OC(O)[C@H](O)[C@@H](O)[C@@H]1O (some centres unmarked) [Glucose, glucose, reference compound]
- Dietary Nitrogen Intake ([1]; Table 1, Example 2, day 1, average of 7 rats): 203 MG N
- Dietary Nitrogen Intake ([1]; Table 1, Example 2, day 2, average of 7 rats): 302 MG N
- Dietary Nitrogen Intake ([1]; Table 1, Example 2, day 3, average of 7 rats): 291 MG N
- Dietary Nitrogen Intake ([1]; Table 1, Example 2, day 4, average of 7 rats): 322 MG N
- Dietary Nitrogen Intake ([1]; Table 1, Example 2, day 5, average of 7 rats): 290 MG N
- Dietary Nitrogen Intake ([1]; Table 1, Example 2, day 7, average of 7 rats): 354 MG N
- Dietary Nitrogen Intake ([1]; Table 7, Example 4, oral only, day 1, average of 9 rats): 279 MG N
- Dietary Nitrogen Intake ([1]; Table 7, Example 4, oral only, day 1, individual rat): 500.08 MG N and 388.22 MG N and 164.5 MG N and 151.34 MG N and 78.96 MG N and 421.12 MG N and 329 MG N and 98.7 MG N and 375.06 MG N
- Dietary Nitrogen Intake ([1]; Table 7, Example 4, oral only, day 2, average of 9 rats): 369 MG N
- Dietary Nitrogen Intake ([1]; Table 7, Example 4, oral only, day 2, individual rat): 519.82 MG N and 513.24 MG N and 500.08 MG N and 98.7 MG N and 269.78 MG N and 434.28 MG N and 342.16 MG N and 243.46 MG N and 401.38 MG N
- Dietary Nitrogen Intake ([1]; Table 7, Example 4, oral only, day 3, average of 9 rats): 323 MG N
- Dietary Nitrogen Intake ([1]; Table 7, Example 4, oral only, day 3, individual rat): 355.32 MG N and 388.22 MG N and 394.8 MG N and 151.34 MG N and 467.18 MG N and 407.96 MG N and 197.4 MG N
- Dietary Nitrogen Intake ([1]; Table 7, Example 4, oral only, day 4, average of 9 rats): 372 MG N
- Dietary Nitrogen Intake ([1]; Table 7, Example 4, oral only, day 4, individual rat): 506.66 MG N and 401.38 MG N and 342.16 MG N and 427.7 MG N and 85.54 MG N and 282.94 MG N and 480.34 MG N and 486.92 MG N and 335.58 MG N
- Dietary Nitrogen Intake ([1]; Table 7, Example 4, oral only, day 5, average of 9 rats): 379 MG N
- Dietary Nitrogen Intake ([1]; Table 7, Example 4, oral only, day 5, individual rat): 493.5 MG N and 421.12 MG N and 368.48 MG N and 335.58 MG N and 0 MG N and 427.7 MG N and 454.02 MG N
- Dietary Nitrogen Intake ([1]; Table 7, Example 4, oral only, day 6, average of 9 rats): 382 MG N
- Dietary Nitrogen Intake ([1]; Table 7, Example 4, oral only, day 6, individual rat): 500.08 MG N and 454.02 MG N and 375.06 MG N and 329 MG N and 0 MG N and 394.8 MG N and 421.12 MG N and 447.44 MG N and 519.82 MG N
- Dietary Nitrogen Intake ([1]; Table 7, Example 4, oral only, day 7, average of 9 rats): 381 MG N
- Dietary Nitrogen Intake ([1]; Table 7, Example 4, oral only, day 7, individual rat): 421.12 MG N and 414.54 MG N and 355.32 MG N and 32.9 MG N and 401.38 MG N and 473.76 MG N and 407.96 MG N and 500.08 MG N
- Urinary Nitrogen ([2]; Table 2, Example 2, day 1, average of 7 rats): 144 mg
- Urinary Nitrogen ([2]; Table 2, Example 2, day 1, individual rat): 164.08 mg and 92.04 mg and 219.2 mg and 80.25 mg and 78.51 mg and 282.44 mg and 88.28 mg
- Urinary Nitrogen ([2]; Table 2, Example 2, day 2, average of 7 rats): 146 mg
- Urinary Nitrogen ([2]; Table 2, Example 2, day 2, individual rat): 131.95 mg and 74.58 mg and 311.7 mg and 147.44 mg and 42.51 mg and 224.09 mg and 88.37 mg
- Urinary Nitrogen ([2]; Table 2, Example 2, day 3, average of 7 rats): 203 mg
- Urinary Nitrogen ([2]; Table 2, Example 2, day 3, individual rat): 58.42 mg and 94.88 mg and 599.66 mg and 115.01 mg and 145.05 mg and 174.3 mg and 236.92 mg
- Urinary Nitrogen ([2]; Table 2, Example 2, day 4, average of 7 rats): 129 mg
- Urinary Nitrogen ([2]; Table 2, Example 2, day 4, individual rat): 109.72 mg and 80.52 mg and 274.22 mg and 93.31 mg and 78.6 mg and 145.43 mg and 124.12 mg
- Urinary Nitrogen ([2]; Table 2, Example 2, day 5, average of 7 rats): 177 mg
- Urinary Nitrogen ([2]; Table 2, Example 2, day 5, individual rat): 111.02 mg and 125.89 mg and 316.17 mg and 84.8 mg and 224.34 mg and 241.17 mg and 137.97 mg
- Urinary Nitrogen ([2]; Table 2, Example 2, day 6, average of 7 rats): 178 mg
- Urinary Nitrogen ([2]; Table 2, Example 2, day 6, individual rat): 114.67 mg and 65.54 mg and 227.23 mg and 135.24 mg and 118.95 mg and 333.85 mg and 252.42 mg
- Urinary Nitrogen ([2]; Table 2, Example 2, day 7, average of 7 rats): 218 mg
- Urinary Nitrogen ([2]; Table 2, Example 2, day 7, individual rat): 71.89 mg and 105.54 mg and 474.91 mg and 159.89 mg and 124.66 mg and 267 mg and 319.39 mg
- Urinary Nitrogen ([2]; Table 8, Example 4, day 1, average of 9 rats): 128 mg
- Urinary Nitrogen ([2]; Table 8, Example 4, day 1, individual rat): 252 mg and 114.8 mg and 82.1 mg and 75.4 mg and 22.4 mg and 158.4 mg and 133.9 mg and 148.3 mg and 164.3 mg
- Urinary Nitrogen ([2]; Table 8, Example 4, day 2, average of 9 rats): 135 mg
- Urinary Nitrogen ([2]; Table 8, Example 4, day 2, individual rat): 266.4 mg and 153.9 mg and 105 mg and 57 mg and 91.8 mg and 159.8 mg and 111 mg and 108.9 mg and 158 mg
- Urinary Nitrogen ([2]; Table 8, Example 4, day 3, average of 9 rats): 106 mg
- Urinary Nitrogen ([2]; Table 8, Example 4, day 3, individual rat): 151 mg and 89.1 mg and 107.2 mg and 68.4 mg and 118.3 mg and 131.9 mg and 135.4 mg and 59.8 mg and 91.8 mg
- Urinary Nitrogen ([2]; Table 8, Example 4, day 4, average of 9 rats): 125 mg
- Urinary Nitrogen ([2]; Table 8, Example 4, day 4, individual rat): 127.2 mg and 92.7 mg and 114.8 mg and 44.5 mg and 73.8 mg and 165.9 mg and 168.7 mg and 93.6 mg and 240.1 mg
- Urinary Nitrogen ([2]; Table 8, Example 4, day 5, average of 9 rats): 131 mg
- Urinary Nitrogen ([2]; Table 8, Example 4, day 5, individual rat): 127.8 mg and 97.7 mg and 93.7 mg and 45.9 mg and 84.8 mg and 236.3 mg and 166.4 mg and 123.4 mg and 203.2 mg
- Urinary Nitrogen ([2]; Table 8, Example 4, day 6, average of 9 rats): 172 mg
- Urinary Nitrogen ([2]; Table 8, Example 4, day 6, individual rat): 256.3 mg and 104.9 mg and 133.7 mg and 72.7 mg and 138.3 mg and 307.5 mg and 146.9 mg and 169.4 mg and 215.2 mg
- Urinary Nitrogen ([2]; Table 8, Example 4, day 7, average of 9 rats): 162 mg
- Urinary Nitrogen ([2]; Table 8, Example 4, day 7, individual rat): 118.3 mg and 106.6 mg and 175.8 mg and 22.6 mg and 145.6 mg and 384.8 mg and 126.8 mg and 162.4 mg and 212.8 mg
- urinary nitrogen losses ([2]; in words, 7 days): Saline infused rats also lost more nitrogen in the urine than did glucose infused rats
- ACAC [3, 4]: 0.088 mmol/L
- BOHB [3, 4]: 0.505 mmol/L
- FFa [3, 4]: 0.564 mmol/L
- Glucose [3, 4]: 185.423 mg/dL
- ACAC [3, 5]: 0.020 mmol/L and 0.066 mmol/L and 0.194 mmol/L and 0.096 mmol/L and 0.017 mmol/L and 0.031 mmol/L
- BOHB [3, 5]: 0.385 mmol/L and 0.476 mmol/L and 0.533 mmol/L and 0.332 mmol/L and 0.358 mmol/L and 1.086 mmol/L and 0.363 mmol/L
- FFa [3, 5]: 0.337 mmol/L and 0.976 mmol/L and 0.850 mmol/L and 0.816 mmol/L and 0.168 mmol/L and 0.483 mmol/L and 0.316 mmol/L
- Glucose [3, 5]: 196.840 mg/dL and 161.300 mg/dL and 162.620 mg/dL and 164.800 mg/dL and 237.100 mg/dL and 228.500 mg/dL
- T.KB [3, 4]: 0.593 mmol/L
- T.KB [3, 5]: 0.405 mmol/L and 0.542 mmol/L and 0.727 mmol/L and 0.427 mmol/L and 0.375 mmol/L and 1.280 mmol/L and 0.394 mmol/L
- ACAC ([3]; Table 11, Example 4, average): 0.029 mmol/L
- BOHB ([3]; Table 11, Example 4, average): 0.512 mmol/L
- Glucose ([3]; Table 11, Example 4, average): 214.433 mg/dL
- Total FFA ([3]; Table 11, Example 4, average): 0.341 mmol/L
- ACAC [3, 6]: 0.0085 mmol/L and 0.1195 mmol/L and 0.0177 mmol/L and 0.0095 mmol/L and 0.0038 mmol/L and 0.0145 mmol/L
- BOHB [3, 6]: 0.5282 mmol/L and 0.5088 mmol/L and 0.5936 mmol/L and 0.2075 mmol/L and 0.6958 mmol/L and 0.6475 mmol/L and 0.3727 mmol/L and 0.4066 mmol/L and 0.651 mmol/L
- Glucose [3, 6]: 263.3 mg/dL and 203.5 mg/dL and 429.3 mg/dL and 208 mg/dL and 284.8 mg/dL and 163.5 mg/dL and 124.9 mg/dL and 116.6 mg/dL
- Total FFA [3, 6]: 0.327 mmol/L and 0.231 mmol/L and 0.462 mmol/L and 0.434 mmol/L and 0.525 mmol/L and 0.303 mmol/L and 0.206 mmol/L and 0.395 mmol/L and 0.19 mmol/L
- blood / plasma glucose ([3]; in words, end of day 7): significantly elevatea plasma glucose; also recorded: higher for glucose infused rats than for the other two groups
